Experimental data: US11679107B2 (Eisai R&D Management Co., Ltd., priority 2018, dated 2023)
Read-outs that look alike come from different tables or passages of the source.

Assays:
[1] = test system: NCI-H1568 cells (high MCL1); assay: Cell proliferation and viability, CellTiter-Glo, 72 hours; format: cell-based; settings: for GI50: geometric mean; for CTGlo-ATS Mean MinResponse % 72 h NCIH1568.1: −100% cidal, 0% static, 100% maximal growth
Summary of the method: (§1)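 ATP luminescence (CellTiter-Glo) was measured 72 h after treatment with compound at 10 μM–100 pM (11 points, half-log) in 0.1% DMSO. The Panc line was grown in RPMI-1640 plus insulin and 15% FBS, the other in 10% FBS. Data were normalised to time zero and vehicle controls, where −100% is cidal and 0% static.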

[2] = test system: Panc 05.04 cells (SF3b K700E mutant); assay: as above; format: cell-based; settings: for CTGlo-ATS Mean MinResponse % 72 h PANC0504.1: −100% cidal, 0% static, 100% maximal growth; for GI50: geometric mean
Summary of the method: as §1

SF3b complexes = target: T1, SF3b complexes (Homo sapiens, UniProt O75533+Q7RTV0); assay: Scintillation proximity assay (SPA) with [3H]-labelled pladienolide probe; format: binding; settings: SF3B1 (WT); geometric mean; read-out: SPA-ATS GMean IC50 (nM) SF3B1 (WT)
T1 construct: endogenous in cells; host or cells: Nuclear extracts; A HeLa S3 extract preparation is described for the in vitro splicing assay
Summary of the method: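 SF3b complexes captured from nuclear extracts on anti-SF3B1 antibody SPA beads; test compounds pre-incubated 30 min before 2.5 nM [3H]-pladienolide probe added, then 30 min incubation. Bound probe read by scintillation; values from non-linear regression of concentration–response curves.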

[3] = test system: Ad2 variant pre-mRNAs spliced in HeLa S3 nuclear extracts; assay: In vitro splicing assay (IVS), RT-qPCR of spliced product; format: biochemical; settings: geometric mean
Summary of the method: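 Read-out is one-step TaqMan RT-qPCR of spliced Ad2 mRNA with Ftz as reference, normalized to DMSO and fit by non-linear regression. Reactions held HeLa S3 nuclear extract, 2 ng Ad2-derived pre-mRNA and test compound, with 15 min preincubation. Splicing was started with ATP-containing activation buffer and run 90 min at 30 °C.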

[4] = NCI-H1568, read-out: CTGlo-ATS GMean GI50 (nM) 72 h NCIH1568.1, NCIH1568.1 cells, 72 h
[5] = Panc 05.04, read-out: CTGlo-ATS GMean GI50 (nM) 72 h PANC0504.1, PANC0504.1 cells, 72 h
[6] = Ad2.1 pre-mRNA substrate, read-out: qPCR-IVS-ATS GMean IC50 (nM) Ad2.1
[7] = Ad2.2 pre-mRNA substrate, read-out: qPCR-IVS-ATS GMean IC50 (nM) Ad2.2
[8] = NCI-H1568, 72 h, read-out: CTGlo-ATS GMean GI50 (nM) 72 h NCIH1568.1, NCIH1568.1 cells, 72 h
[9] = Panc 05.04, 72 h, read-out: CTGlo-ATS GMean GI50 (nM) 72 h PANC0504.1, PANC0504.1 cells, 72 h

SMILES	GI50 [1, 4]	CTGlo-ATS Mean MinResponse % 72 h NCIH1568.1 ([1]; NCIH1568.1 cells, 72 h)	CTGlo-ATS Mean MinResponse % 72 h PANC0504.1 ([2]; PANC0504.1 cells, 72 h)	GI50 [2, 5]	IC50 (SF3b complexes)	IC50 [3, 6]	IC50 [3, 7]	GI50 [1, 8]	GI50 [2, 9]
C/C(=C\c1cccc2[nH]ncc12)[C@H]1OC(=O)C[C@H](O)CC[C@H](C)[C@@H](OC(=O)N2CCN(C)CC2)/C=C/[C@@H]1C [Compound 5]	59.7 nM	−38.293%	−17.631%	47.2 nM	6.61 nM	1500 nM	94.7 nM		
C/C(=C\c1ccnc(N2CCOCC2)c1)[C@H]1OC(=O)C[C@H](O)CC[C@H](C)[C@@H](OC(=O)N2CCN(C)CC2)/C=C/[C@@H]1C [Compound 6]	29.1 nM	−17.149%	−88.664%	15.7 nM	8.85 nM	> 25000 nM	75.3 nM		
C/C(=C\c1cc(N2CCOCC2)ccc1F)[C@H]1OC(=O)C[C@H](O)CC[C@H](C)[C@@H](OC(=O)N2CCN(C)CC2)/C=C/[C@@H]1C [Compound 7]	15.1 nM	−56.359%	−89.436%	8.96 nM	2.88 nM	1250 nM	25.1 nM		
CN[C@@H]1CCN(c2cccc(/C=C(\C)[C@H]3OC(=O)C[C@H](O)CC[C@H](C)[C@@H](OC(=O)N4CCN(C)CC4)/C=C/[C@@H]3C)c2)C1 [Compound 9]	116 nM	−83.308%	−87.085%	63.9 nM	14.9 nM	107 nM	27 nM		
C/C(=C\c1cc(N2CCOCC2)ccc1F)[C@H]1OC(=O)C[C@H](O)CC[C@H](C)[C@@H](OC(=O)N2CCC(N3CCCCC3)CC2)/C=C/[C@@H]1C [Compound 11]	84.4 nM	−43.979%	−91.789%	54.2 nM	9.49 nM	> 25000 nM	93.4 nM		
C/C(=C\c1cc(F)cc(N2CCN(CCO)CC2)c1)[C@H]1OC(=O)C[C@H](O)CC[C@H](C)[C@@H](OC(=O)N2CCN(C)CC2)/C=C/[C@@H]1C [Compound 12]	3.64 nM	−92.161%	−73.954%	7.55 nM	4.88 nM	14.7 nM	13.5 nM		
C/C(=C\c1cc(F)cc(N2CCN(CCO)CC2)c1)[C@H]1OC(=O)C[C@H](O)CC[C@H](C)[C@@H](OC(=O)N2CCC(N3CCCCC3)CC2)/C=C/[C@@H]1C [Compound 13]	20.8 nM	−95.312%	−94.040%	32.7 nM	7.43 nM	19.3 nM	15.9 nM		
C/C(=C\c1cc(F)cc(N2CC[C@@H](F)C2)c1)[C@H]1OC(=O)C[C@H](O)CC[C@H](C)[C@@H](OC(=O)N2CCN(C)CC2)/C=C/[C@@H]1C [Compound 14]		−65.049%	−91.489%		2.72 nM	584 nM	54.7 nM	14.1 nM	19.6 nM
C/C(=C\c1cc(F)cc(N2CCC[C@H]2CO)c1)[C@H]1OC(=O)C[C@H](O)CC[C@H](C)[C@@H](OC(=O)N2CCN(C)CC2)/C=C/[C@@H]1C [Compound 15]		−74.931%	−80.816%		6.33 nM	21.6 nM	12.3 nM	7.58 nM	6.23 nM
C/C(=C\c1cc(F)cc(N2C[C@@H](C)O[C@@H](C)C2)c1)[C@H]1OC(=O)C[C@H](O)CC[C@H](C)[C@@H](OC(=O)N2CCC(N3CCCCC3)CC2)/C=C/[C@@H]1C [Compound 16]	59.1 nM	−88.977%	−85.810%	41.5 nM	57 nM	100 nM	39.2 nM		
C/C(=C\c1cc(F)cc(N2CC[C@H](N(C)C)C2)c1)[C@H]1OC(=O)C[C@H](O)CC[C@H](C)[C@@H](OC(=O)N2CCN(C)CC2)/C=C/[C@@H]1C [Compound 17]	53.4 nM	−87.647%	−72.749%	57.8 nM	10.7 nM	46.8 nM	34 nM		
C/C(=C\c1cc(C)cc(N2CCOCC2)c1)[C@H]1OC(=O)C[C@H](O)CC[C@H](C)[C@@H](OC(=O)N2CCN(C)CC2)/C=C/[C@@H]1C [Compound 18]	26.1 nM	−60.339%	−83.683%	19.9 nM	16.7 nM	77.5 nM	34.3 nM		
C/C(=C\c1cc(Cl)cc(N2CCOCC2)c1)[C@H]1OC(=O)C[C@H](O)CC[C@H](C)[C@@H](OC(=O)N2CCN(C)CC2)/C=C/[C@@H]1C [Compound 20]	17.6 nM	−68.668%	−78.467%	14.6 nM	7.76 nM	61.3 nM	40.3 nM		
C/C(=C\c1cc(F)cc(N2CCOCC2)c1)[C@H]1OC(=O)C[C@H](O)CC[C@H](C)[C@@H](OC(=O)N2CCN(CCO)CC2)/C=C/[C@@H]1C [Compound 21]	31.2 nM	−50.841%	−90.919%	23.6 nM	10.3 nM	1610 nM	52.3 nM		
C/C(=C\c1cc(F)cc(N2CCOCC2)c1)[C@H]1OC(=O)C[C@H](O)CC[C@H](C)[C@@H](OC(=O)N(C)C2CCN(C)CC2)/C=C/[C@@H]1C [Compound 22]	12.8 nM	−69.453%	−84.195%	11.6 nM	5.76 nM	876 nM	38.8 nM		
